In ChEMBL document CHEMBL4819115, “Discovery of potent and selective reversible Bruton's tyrosine kinase inhibitors” (Bioorg Med Chem, 2021):
In brackets after ≈: the same amount, converted by molar mass.

Legend:
physchem = details: FaSSIF
[1] = Kinetic solubility of the compound; format: physicochemical; details: read-out: Kinetic_solubility
[2] = Intrinsic clearance in human microsomes; format: ADME, Microsome
[3] = Intrinsic clearance in mouse microsomes; format: ADME, Microsome
[4] = Intrinsic clearance in rat microsomes; format: ADME, Microsome
[5] = Stability of the compound in human plasma assessed as parent compound remaining after 4 hrs; format: ADME, cell-free; details: read-out: Stabilty
[6] = Stability of the compound in mouse plasma assessed as parent compound remaining after 4 hrs; format: ADME, cell-free; details: read-out: Stabilty
[7] = AUC(0 to 6 hrs) in rat at 10 mg/kg, po; format: ADME, organism-based; parameters: time < 6 hr, route oral, dose 10 mg/kg; details: in vivo
[8] = AUC(0 to 4 hrs) in rat at 0.2 mg/kg, iv; format: ADME, organism-based; parameters: time < 4 hr, route intravenous, dose 0.2 mg/kg; details: in vivo
[9] = Cmax in rat at 10 mg/kg, po; format: ADME, organism-based; parameters: route oral, dose 10 mg/kg; details: in vivo
[10] = Oral bioavailability in rat at 10 mg/kg; format: ADME, organism-based; details: in vivo
[11] = Half life in rat at 10 mg/kg, po; format: ADME, organism-based; details: in vivo
[12] = Clearance in rat at 0.2 mg/kg, iv; format: ADME, organism-based; details: in vivo
[13] = Volume of distribution at steady state in rat at 0.2 mg/kg, iv; format: ADME, organism-based; details: in vivo, read-out: Vdss

## CN1CCN(c2ccc(Nc3cc(-c4cccc(-n5ccc6cc(C7CC7)cc(F)c6c5=O)c4CO)cn(C)c3=O)nc2)CC1
physchem
  solubility: 31 µg/mL (≈ 51.1 µM)

## Cn1cc(-c2nc3c(-c4ccc(CNC(=O)c5nc(C(C)(C)C)no5)c(F)c4)ccnc3[nH]2)cn1
[1]
  solubility kinetic: 1.7 µM (≈ 0.807 µg/mL)
physchem
  solubility: 2 µg/mL (≈ 4.21 µM)

## Cn1cc(-c2nc3c(-c4ccc(C5(NC(=O)c6nc(C(C)(C)C)no6)CC5)cc4)ccnc3[nH]2)cn1
physchem
  solubility: 56 µg/mL (≈ 116 µM)

## Cc1c(-c2nc3c(-c4ccc5c(c4)CCC[C@@H]5NC(=O)c4nc(C(C)(C)C)no4)ccnc3[nH]2)cnn1C(C)C
physchem
  solubility: 28 µg/mL (≈ 52 µM)

## Cc1nn(C(C)C)c(C)c1-c1nc2c(-c3ccc4c(c3)CCC[C@H]4NC(=O)c3nc(C(C)(C)C)no3)ccnc2[nH]1
physchem
  solubility: 56 µg/mL (≈ 101 µM)

## CC(C)n1cc(-c2nc3c(-c4ccc5c(c4)CCC[C@@H]5NC(=O)c4nc(C(C)(C)C)no4)ccnc3[nH]2)cn1
physchem
  solubility: 25 µg/mL (≈ 47.7 µM)

## Cn1cc(-c2nc3c(-c4ccc5c(c4)CCC[C@@H]5NC(=O)c4nc(C(C)(C)C)no4)ccnc3[nH]2)cn1
physchem
  solubility: 190 µg/mL (≈ 383 µM)

## Cc1nn(C2CCOCC2)cc1-c1nc2c(-c3ccc4c(c3)CCC[C@@H]4NC(=O)c3nc(C(C)(C)C)no3)ccnc2[nH]1
physchem
  solubility: 33 µg/mL (≈ 56.8 µM)

## Cc1c(-c2nc3c(-c4ccc5c(c4)CCC[C@H]5NC(=O)c4nc(C(C)(C)C)no4)ccnc3[nH]2)cnn1C1CCOCC1
physchem
  solubility: 7 µg/mL (≈ 12.1 µM)

## Cc1nn(C(C)C)c(C)c1-c1nc2nccc(-c3ccc4c(c3)CCCC[C@H]4NC(=O)c3nc(C(C)(C)C)no3)c2[nH]1
[2]
  microsomal CLint: 32 µL/min/mg
[3]
  microsomal CLint: 75 µL/min/mg
[4]
  microsomal CLint: 67 µL/min/mg
[5]
  remaining at 4 h: > 85%
[6]
  remaining at 4 h: > 85%
[7]
  AUC: 3030 ng·h/mL
[8]
  AUC: 79 ng·h/mL
[9]
  Cmax: 849 ng/mL
[10]
  bioavailability: 77%
[11]
  half-life: 1.93 h
[12]
  CL: 40.3 mL/min/kg
[13]
  Vd: 2.62 L/kg
